Experimental data published in the NIST ThermoML archive (doi:10.1016/j.fluid.2013.08.029).

Experiment: xn = mol fraction of the nth substance listed
Conditions: 101 kPa, Liquid; for speed of sound: Sing-around technique in a fixed-path interferometer; for mass density: Vibrating tube method

CCCCn1cc[n+](C)c1C.F[B-](F)(F)F [1-butyl-2,3-dimethylimidazolium tetrafluoroborate] + OCCO
Conditions	mass density [kg/m3]	speed of sound [m/s]
288.15 K, x1 = 0.0698	1138.16	1674
288.15 K, x1 = 0.1114	1148.04	1668.1
288.15 K, x1 = 0.219	1163.09	1661.9
288.15 K, x1 = 0.3157	1172.24	1657
288.15 K, x1 = 0.4167	1177.8	1653.7
288.15 K, x1 = 0.5153	1181.99	1652.5
288.15 K, x1 = 0.6157	1185.96	1653.1
288.15 K, x1 = 0.7042	1189.36	1654.9
288.15 K, x1 = 0.8028	1192.88	1658
288.15 K, x1 = 0.9065	1196.58	1662.1
293.15 K, x1 = 0.0698	1134.55	1661
293.15 K, x1 = 0.1114	1144.09	1655.6
293.15 K, x1 = 0.219	1159.15	1649.5
293.15 K, x1 = 0.3157	1167.38	1643.8
293.15 K, x1 = 0.4167	1172.09	1639.4
293.15 K, x1 = 0.5153	1176.32	1638
293.15 K, x1 = 0.6157	1180.66	1638.7
293.15 K, x1 = 0.7042	1184.47	1641.5
293.15 K, x1 = 0.8028	1188.27	1645.2
293.15 K, x1 = 0.9065	1192.09	1649.9
298.15 K, x1 = 0.0698	1130.93	1648.8
298.15 K, x1 = 0.1114	1140.43	1643.3
298.15 K, x1 = 0.219	1155.3	1636.8
298.15 K, x1 = 0.3157	1162.95	1631.4
298.15 K, x1 = 0.4167	1167.85	1628.2
298.15 K, x1 = 0.5153	1171.8	1627.1
298.15 K, x1 = 0.6157	1176.73	1627.5
298.15 K, x1 = 0.7042	1180.56	1630.3
298.15 K, x1 = 0.8028	1184.59	1633.5
298.15 K, x1 = 0.9065	1188.59	1637.7
303.15 K, x1 = 0.0698	1127.3	1637
303.15 K, x1 = 0.1114	1136.79	1631.5
303.15 K, x1 = 0.219	1151.47	1624.4
303.15 K, x1 = 0.3157	1158.29	1619.7
303.15 K, x1 = 0.4167	1162.58	1616.6
303.15 K, x1 = 0.5153	1166.36	1615.5
303.15 K, x1 = 0.6157	1171.53	1616.5
303.15 K, x1 = 0.7042	1176.14	1618.8
303.15 K, x1 = 0.8028	1180.73	1621.7
303.15 K, x1 = 0.9065	1185.16	1625.7
308.15 K, x1 = 0.0698	1123.65	1625.3
308.15 K, x1 = 0.1114	1133.19	1619.4
308.15 K, x1 = 0.219	1147.66	1612.2
308.15 K, x1 = 0.3157	1154.93	1607.7
308.15 K, x1 = 0.4167	1158.22	1604.7
308.15 K, x1 = 0.5153	1161.45	1604.2
308.15 K, x1 = 0.6157	1167.01	1605
308.15 K, x1 = 0.7042	1172.28	1607.4
308.15 K, x1 = 0.8028	1177.55	1610.5
308.15 K, x1 = 0.9065	1182.72	1613.7
313.15 K, x1 = 0.0698	1120	1613.8
313.15 K, x1 = 0.1114	1129.53	1607.9
313.15 K, x1 = 0.219	1143.87	1600
313.15 K, x1 = 0.3157	1150.95	1595.7
313.15 K, x1 = 0.4167	1154.7	1592.9
313.15 K, x1 = 0.5153	1158.26	1592.8
313.15 K, x1 = 0.6157	1163.8	1594
313.15 K, x1 = 0.7042	1169.14	1596.4
313.15 K, x1 = 0.8028	1174.46	1598.9
313.15 K, x1 = 0.9065	1179.21	1602
318.15 K, x1 = 0.0698	1116.33	1602.5
318.15 K, x1 = 0.1114	1125.84	1596.2
318.15 K, x1 = 0.219	1140.07	1587.9
318.15 K, x1 = 0.3157	1147.06	1584
318.15 K, x1 = 0.4167	1150.9	1581.2
318.15 K, x1 = 0.5153	1154.9	1581.6
318.15 K, x1 = 0.6157	1160.61	1582.8
318.15 K, x1 = 0.7042	1165.8	1585.1
318.15 K, x1 = 0.8028	1171.11	1587.7
318.15 K, x1 = 0.9065	1175.65	1590.8

CCCCCn1cc[n+](C)c1.F[B-](F)(F)F [1-methyl-3-pentyl-imidazolium tetrafluoroborate] + OCCO
Conditions	mass density [kg/m3]	speed of sound [m/s]
288.15 K, x1 = 0.0549	1127.51	1659
288.15 K, x1 = 0.1148	1135.95	1639.3
288.15 K, x1 = 0.2053	1145.61	1617.1
288.15 K, x1 = 0.3086	1153.94	1599.3
288.15 K, x1 = 0.4154	1160.64	1587.3
288.15 K, x1 = 0.5063	1165.13	1580.3
288.15 K, x1 = 0.6273	1170.27	1573.1
288.15 K, x1 = 0.7138	1173.4	1569.8
288.15 K, x1 = 0.7982	1176.33	1567.9
288.15 K, x1 = 0.8985	1179.69	1565.9
293.15 K, x1 = 0.0549	1123.89	1646.9
293.15 K, x1 = 0.1148	1132.23	1627.2
293.15 K, x1 = 0.2053	1141.81	1604.6
293.15 K, x1 = 0.3086	1150.12	1586.9
293.15 K, x1 = 0.4154	1156.84	1575
293.15 K, x1 = 0.5063	1161.54	1567.7
293.15 K, x1 = 0.6273	1166.54	1560.8
293.15 K, x1 = 0.7138	1169.75	1558.1
293.15 K, x1 = 0.7982	1172.71	1556.8
293.15 K, x1 = 0.8985	1176.11	1555.3
298.15 K, x1 = 0.0549	1120.27	1634.8
298.15 K, x1 = 0.1148	1128.52	1615.1
298.15 K, x1 = 0.2053	1138.01	1592.4
298.15 K, x1 = 0.3086	1146.31	1574.7
298.15 K, x1 = 0.4154	1153.05	1562.7
298.15 K, x1 = 0.5063	1157.88	1555.5
298.15 K, x1 = 0.6273	1162.86	1548.3
298.15 K, x1 = 0.7138	1166.1	1544.8
298.15 K, x1 = 0.7982	1169.1	1542.3
298.15 K, x1 = 0.8985	1172.64	1540.3
303.15 K, x1 = 0.0549	1116.63	1622.8
303.15 K, x1 = 0.1148	1124.81	1602.9
303.15 K, x1 = 0.2053	1134.22	1580.2
303.15 K, x1 = 0.3086	1142.5	1562.5
303.15 K, x1 = 0.4154	1149.27	1550.6
303.15 K, x1 = 0.5063	1154.21	1543.2
303.15 K, x1 = 0.6273	1159.19	1536.5
303.15 K, x1 = 0.7138	1162.48	1532.8
303.15 K, x1 = 0.7982	1165.5	1530.3
303.15 K, x1 = 0.8985	1169.12	1528.5
308.15 K, x1 = 0.0549	1113	1609.9
308.15 K, x1 = 0.1148	1121.09	1590.9
308.15 K, x1 = 0.2053	1130.44	1568.1
308.15 K, x1 = 0.3086	1138.71	1550.4
308.15 K, x1 = 0.4154	1145.51	1538.5
308.15 K, x1 = 0.5063	1150.46	1531.2
308.15 K, x1 = 0.6273	1155.52	1524.5
308.15 K, x1 = 0.7138	1158.87	1521
308.15 K, x1 = 0.7982	1161.91	1518.5
308.15 K, x1 = 0.8985	1165.59	1516.9
313.15 K, x1 = 0.0549	1109.35	1598.2
313.15 K, x1 = 0.1148	1117.37	1578.9
313.15 K, x1 = 0.2053	1126.66	1556.1
313.15 K, x1 = 0.3086	1134.93	1538.4
313.15 K, x1 = 0.4154	1141.76	1526.5
313.15 K, x1 = 0.5063	1146.71	1519.5
313.15 K, x1 = 0.6273	1151.88	1512.8
313.15 K, x1 = 0.7138	1155.26	1509.2
313.15 K, x1 = 0.7982	1158.35	1506.4
313.15 K, x1 = 0.8985	1162.04	1505.3
318.15 K, x1 = 0.0549	1105.67	1586.7
318.15 K, x1 = 0.1148	1113.63	1566.9
318.15 K, x1 = 0.2053	1122.88	1544.2
318.15 K, x1 = 0.3086	1131.15	1526.6
318.15 K, x1 = 0.4154	1138.02	1514.6
318.15 K, x1 = 0.5063	1142.8	1507.7
318.15 K, x1 = 0.6273	1148.22	1501.5
318.15 K, x1 = 0.7138	1151.65	1497.7
318.15 K, x1 = 0.7982	1154.78	1495.5
318.15 K, x1 = 0.8985	1158.38	1494
